Reference: ChEMBL document CHEMBL1201862, “PubChem BioAssay data set” (2004)
The source made the active and inactive calls.

What was measured:
[1] = biological target: T1, Sentrin-specific protease 1 (Homo sapiens, UniProt Q9P0U3); experiment: SENP1 catalytic domain blockers, concentration series – biochemical, kinetic FRET, dose response (AID 651697); type: functional; conditions: read-out: IC50_Mean
T1 sequence (Q9P0U3 whole entry): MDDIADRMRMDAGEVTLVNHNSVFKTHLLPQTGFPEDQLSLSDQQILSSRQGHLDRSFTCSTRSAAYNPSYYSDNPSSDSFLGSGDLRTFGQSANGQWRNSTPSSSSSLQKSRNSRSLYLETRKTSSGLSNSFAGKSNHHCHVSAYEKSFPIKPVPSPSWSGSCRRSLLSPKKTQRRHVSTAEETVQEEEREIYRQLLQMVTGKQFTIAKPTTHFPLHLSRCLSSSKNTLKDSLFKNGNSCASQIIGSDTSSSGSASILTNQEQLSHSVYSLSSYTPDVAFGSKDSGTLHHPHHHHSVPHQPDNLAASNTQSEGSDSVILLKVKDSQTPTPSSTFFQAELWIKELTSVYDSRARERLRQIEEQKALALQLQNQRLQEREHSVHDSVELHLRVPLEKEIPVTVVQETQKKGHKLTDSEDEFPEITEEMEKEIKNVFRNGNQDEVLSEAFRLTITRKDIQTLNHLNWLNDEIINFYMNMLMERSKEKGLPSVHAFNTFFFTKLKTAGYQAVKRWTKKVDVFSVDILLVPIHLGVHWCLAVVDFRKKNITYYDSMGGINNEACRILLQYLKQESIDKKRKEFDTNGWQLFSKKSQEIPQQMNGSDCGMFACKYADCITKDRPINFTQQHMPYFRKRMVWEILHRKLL

[2] = biological target: T1, Sentrin-specific protease 1; experiment: Dose response confirmation of small molecule inhibitors of the catalytic domain of the SUMO protease, SENP1 in a FRET assay.; type: functional; conditions: read-out: IC50_Mean
[3] = biological target: Genome polyprotein (dengue virus type 2, UniProt P29990); experiment: flavivirus cap methylation enzyme inhibition – biochemical, confirmation dose response, primary screen (AID 588689); type: functional
Genome polyprotein, sequence (P29990 2492-3391 limits assumed): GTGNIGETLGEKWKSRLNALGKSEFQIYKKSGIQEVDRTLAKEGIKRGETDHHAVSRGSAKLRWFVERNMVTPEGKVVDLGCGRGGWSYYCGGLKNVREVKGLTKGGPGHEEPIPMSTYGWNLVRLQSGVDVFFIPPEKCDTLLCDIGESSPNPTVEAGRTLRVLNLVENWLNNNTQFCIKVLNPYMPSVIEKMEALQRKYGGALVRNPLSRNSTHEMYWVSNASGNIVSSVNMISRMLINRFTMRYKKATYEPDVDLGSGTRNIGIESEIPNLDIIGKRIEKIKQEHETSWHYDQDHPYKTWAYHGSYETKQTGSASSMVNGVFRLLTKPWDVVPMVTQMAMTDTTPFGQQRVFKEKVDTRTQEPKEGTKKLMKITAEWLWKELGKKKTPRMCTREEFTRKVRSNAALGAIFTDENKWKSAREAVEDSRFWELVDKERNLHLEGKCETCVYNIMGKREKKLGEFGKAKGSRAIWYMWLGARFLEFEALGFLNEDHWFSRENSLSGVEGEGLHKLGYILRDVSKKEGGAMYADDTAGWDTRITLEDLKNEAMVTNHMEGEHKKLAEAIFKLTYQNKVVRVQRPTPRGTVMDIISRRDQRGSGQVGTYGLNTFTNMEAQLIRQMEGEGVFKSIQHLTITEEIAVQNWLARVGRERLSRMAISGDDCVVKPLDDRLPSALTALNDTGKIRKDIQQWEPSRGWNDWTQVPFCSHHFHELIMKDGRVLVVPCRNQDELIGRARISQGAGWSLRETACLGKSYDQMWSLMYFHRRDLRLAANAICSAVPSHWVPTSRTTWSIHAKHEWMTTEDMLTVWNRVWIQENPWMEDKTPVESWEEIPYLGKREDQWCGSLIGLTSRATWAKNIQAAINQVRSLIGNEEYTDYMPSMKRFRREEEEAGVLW

[4] = biological target: T2, Small ubiquitin-related modifier 1 (Homo sapiens, UniProt P63165); experiment: SUMO1 protein-protein binding blockers, potency – biochemical, FRET, dose response (AID 624383); type: functional; conditions: read-out: IC50_Mean
T2 sequence (P63165 whole entry): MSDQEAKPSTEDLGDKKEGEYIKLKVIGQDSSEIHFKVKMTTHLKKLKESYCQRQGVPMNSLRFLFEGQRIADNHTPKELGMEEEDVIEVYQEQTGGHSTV

[5] = system: Vero; experiment: viability of Vero cells under compound – cytotoxicity control for flavivirus capping enzyme inhibitors (AID 588742); type: functional; conditions: Chlorocebus sabaeus
[6] = biological target: T2, Small ubiquitin-related modifier 1; experiment: SUMO1 protein interaction blockers, potency – biochemical, fluorescence polarization, uHTS hits, dose response (AID 624382); type: functional; conditions: read-out: IC50_Mean
[7] = biological target: Photoreceptor-specific nuclear receptor (Homo sapiens, UniProt Q9Y5X4); type: functional, cell-based;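 also: CHO-S cells with Gal4-NCOR and VP16-NR2E3 two-hybrid luciferase reporter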
Photoreceptor-specific nuclear receptor, sequence (Q9Y5X4 whole entry, the tested form may be a part): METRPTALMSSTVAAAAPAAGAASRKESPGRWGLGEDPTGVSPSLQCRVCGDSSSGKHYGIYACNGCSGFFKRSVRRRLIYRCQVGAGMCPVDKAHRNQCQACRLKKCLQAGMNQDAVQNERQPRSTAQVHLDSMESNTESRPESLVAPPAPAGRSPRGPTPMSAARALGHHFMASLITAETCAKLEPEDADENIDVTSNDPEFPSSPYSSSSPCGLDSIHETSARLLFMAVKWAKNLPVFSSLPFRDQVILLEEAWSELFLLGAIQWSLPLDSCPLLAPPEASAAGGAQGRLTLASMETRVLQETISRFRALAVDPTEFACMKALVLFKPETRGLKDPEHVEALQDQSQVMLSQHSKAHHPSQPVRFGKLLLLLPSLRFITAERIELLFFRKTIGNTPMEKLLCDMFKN

[8] = biological target: T3, Rac GTPase-activating protein 1 (Homo sapiens, UniProt Q9H0H5); experiment: blockers of MgcRacGAP-driven Rac1 GTP hydrolysis – biochemical, ADP Hunter fluorescence, primary and confirmatory, confirmation (AID 624330); type: functional
T3 sequence (Q9H0H5 whole entry): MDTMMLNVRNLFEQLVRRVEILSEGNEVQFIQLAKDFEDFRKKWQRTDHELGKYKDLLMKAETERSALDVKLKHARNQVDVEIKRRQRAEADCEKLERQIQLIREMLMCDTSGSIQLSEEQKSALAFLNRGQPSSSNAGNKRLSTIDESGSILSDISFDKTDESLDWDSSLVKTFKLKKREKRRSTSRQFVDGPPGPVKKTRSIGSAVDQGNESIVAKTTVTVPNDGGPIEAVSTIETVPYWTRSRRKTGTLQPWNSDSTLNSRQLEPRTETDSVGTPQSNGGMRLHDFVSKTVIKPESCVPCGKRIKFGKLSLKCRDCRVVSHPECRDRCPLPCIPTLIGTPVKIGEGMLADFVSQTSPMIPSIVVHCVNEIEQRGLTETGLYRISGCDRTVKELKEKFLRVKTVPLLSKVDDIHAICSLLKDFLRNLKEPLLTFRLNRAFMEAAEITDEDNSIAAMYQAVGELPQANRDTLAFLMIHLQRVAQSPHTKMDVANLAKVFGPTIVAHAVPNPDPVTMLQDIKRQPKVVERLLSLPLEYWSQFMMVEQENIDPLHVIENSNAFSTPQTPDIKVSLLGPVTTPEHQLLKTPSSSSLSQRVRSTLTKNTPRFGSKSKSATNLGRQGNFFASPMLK

[9] = viability loss in HeLa cells – cytotoxicity control for MgcRacGAP inhibitor project, dose response (AID 624300); type: functional
[10] = biological target: Prothrombin (Bos taurus, UniProt P00735); experiment: thrombin protease inhibitors – biochemical, fluorescence polarization, uHTS hits, dose response (AID 602369); type: functional
[11] = luciferase reporter signal suppression in cells – H4 neuroglioma cells, luminescence, dose response (AID 1990); type: functional, cell-based
[12] = alpha-synuclein stem-loop luciferase translation blockers – H4 neuroglioma cells, luminescence, confirmation (AID 1988); type: functional, cell-based
[13] = biological target: 26S proteasome non-ATPase regulatory subunit 14 (Homo sapiens, UniProt O00487); experiment: inhibition of proteasome subunit RPN11 – biochemical, fluorescence polarization, uHTS hits, confirmation (AID 602368); type: functional
26S proteasome non-ATPase regulatory subunit 14, sequence (O00487 whole entry): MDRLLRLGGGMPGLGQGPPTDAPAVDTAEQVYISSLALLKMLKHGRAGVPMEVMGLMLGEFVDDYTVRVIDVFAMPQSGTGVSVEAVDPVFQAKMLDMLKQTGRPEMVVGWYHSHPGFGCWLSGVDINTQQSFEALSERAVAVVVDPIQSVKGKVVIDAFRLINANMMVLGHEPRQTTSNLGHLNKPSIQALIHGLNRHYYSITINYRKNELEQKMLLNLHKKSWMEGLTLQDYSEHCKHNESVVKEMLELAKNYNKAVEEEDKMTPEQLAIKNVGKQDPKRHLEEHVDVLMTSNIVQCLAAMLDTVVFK

[14] = system: Vero; experiment: cells; type: functional; conditions: Chlorocebus sabaeus
[15] = biological target: 72 kDa type IV collagenase (Homo sapiens, UniProt P08253); experiment: Dose Response validation of uHTS RPN11 inhibitor hits using a MMP-2 Fluorescence assay.; type: functional
72 kDa type IV collagenase, sequence (P08253 whole entry): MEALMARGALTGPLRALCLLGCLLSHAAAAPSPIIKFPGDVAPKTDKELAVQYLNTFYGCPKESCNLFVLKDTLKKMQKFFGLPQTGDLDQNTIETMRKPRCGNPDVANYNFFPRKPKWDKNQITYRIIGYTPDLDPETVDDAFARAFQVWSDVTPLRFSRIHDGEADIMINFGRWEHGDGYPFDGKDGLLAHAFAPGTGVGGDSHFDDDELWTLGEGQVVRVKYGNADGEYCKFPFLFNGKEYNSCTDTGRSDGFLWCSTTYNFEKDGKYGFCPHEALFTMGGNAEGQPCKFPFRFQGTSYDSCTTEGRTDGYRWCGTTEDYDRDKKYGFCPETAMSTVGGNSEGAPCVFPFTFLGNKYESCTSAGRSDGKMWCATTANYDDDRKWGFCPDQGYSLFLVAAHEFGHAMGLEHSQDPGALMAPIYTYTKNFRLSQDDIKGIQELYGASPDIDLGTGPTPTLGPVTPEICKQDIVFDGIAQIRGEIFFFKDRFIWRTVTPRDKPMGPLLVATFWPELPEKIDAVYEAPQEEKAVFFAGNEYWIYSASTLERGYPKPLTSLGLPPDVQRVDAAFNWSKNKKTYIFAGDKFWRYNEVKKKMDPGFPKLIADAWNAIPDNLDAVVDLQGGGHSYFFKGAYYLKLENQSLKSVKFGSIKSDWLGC

[16] = biological target: T4, Ubiquitin-conjugating enzyme E2 N (Homo sapiens, UniProt P61088); type: functional;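 also: Dose-response confirmation in a TR-FRET assay detecting UBC13-driven polyubiquitin chain formation, inhibition measured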
T4 sequence (P61088 whole entry): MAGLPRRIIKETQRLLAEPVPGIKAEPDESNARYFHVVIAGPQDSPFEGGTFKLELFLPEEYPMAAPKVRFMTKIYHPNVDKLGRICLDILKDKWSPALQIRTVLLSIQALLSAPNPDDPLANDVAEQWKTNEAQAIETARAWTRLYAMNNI

[17] = Luminescence Cell-Based Dose Response HTS to Identify Inhibitors of 5'UTR Stem-Loop Driven Prion Protein mRNA Translation in H4 Neuroglioblastoma Cells. [Related pubchem assays: 1827 (Project Summary), 1813 (Primary HTS)]; type: functional
[18] = biological target: Steroidogenic factor 1 (Homo sapiens, UniProt Q13285); experiment: Counterscreen for inverse agonists of the liver receptor homolog-1 (LRH-1; NR5A2): Luminescence-based cell-based high throughput dose response assay to identify inverse agonists of the Steroidogenic Factor 1 Nuclear Receptor (SF1; NR5A1).; type: functional
Steroidogenic factor 1, sequence (Q13285 whole entry): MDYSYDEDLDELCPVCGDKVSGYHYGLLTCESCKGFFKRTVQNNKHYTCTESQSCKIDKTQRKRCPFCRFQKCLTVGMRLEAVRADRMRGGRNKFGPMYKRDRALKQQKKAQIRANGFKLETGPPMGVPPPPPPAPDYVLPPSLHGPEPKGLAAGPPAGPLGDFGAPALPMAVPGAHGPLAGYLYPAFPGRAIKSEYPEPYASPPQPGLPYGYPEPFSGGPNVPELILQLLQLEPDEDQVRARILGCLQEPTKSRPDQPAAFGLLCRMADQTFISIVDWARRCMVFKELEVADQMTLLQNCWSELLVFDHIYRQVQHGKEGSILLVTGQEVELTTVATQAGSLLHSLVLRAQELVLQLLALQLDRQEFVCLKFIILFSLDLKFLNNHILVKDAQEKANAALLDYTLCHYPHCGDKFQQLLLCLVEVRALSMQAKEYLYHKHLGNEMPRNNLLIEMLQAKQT

[19] = nonselective StAR promoter luciferase inhibitors – cell-based, luminescence, luciferase reporter, counter-screen for LRH-1 inverse agonist project, dose response (AID 651969); type: functional
[20] = biological target: Nuclear receptor subfamily 5 group A member 2 (Homo sapiens, UniProt O00482); type: functional, cell-based;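 also: HEK293T cells transfected with LRH-1 and a StAR promoter luciferase reporter; potency for inhibitors that lower LRH-1 driven reporter light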
Nuclear receptor subfamily 5 group A member 2, sequence (O00482 whole entry): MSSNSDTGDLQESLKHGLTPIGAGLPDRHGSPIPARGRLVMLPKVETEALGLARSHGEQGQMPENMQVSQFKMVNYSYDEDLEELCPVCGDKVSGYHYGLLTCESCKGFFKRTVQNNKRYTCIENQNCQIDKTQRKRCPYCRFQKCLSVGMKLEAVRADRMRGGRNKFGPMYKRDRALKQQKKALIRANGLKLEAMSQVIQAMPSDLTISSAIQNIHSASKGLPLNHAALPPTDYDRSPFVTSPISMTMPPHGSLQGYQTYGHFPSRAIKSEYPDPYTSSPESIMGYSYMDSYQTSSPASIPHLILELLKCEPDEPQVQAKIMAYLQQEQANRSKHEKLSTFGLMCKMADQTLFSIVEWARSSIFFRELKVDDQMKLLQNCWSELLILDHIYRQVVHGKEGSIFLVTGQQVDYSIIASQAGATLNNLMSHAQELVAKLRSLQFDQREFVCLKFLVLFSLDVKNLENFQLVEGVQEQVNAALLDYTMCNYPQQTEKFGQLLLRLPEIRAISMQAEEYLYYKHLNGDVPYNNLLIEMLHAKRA

[21] = biological target: T5, Leucine aminopeptidase (Plasmodium falciparum 3D7, UniProt Q8IL11); experiment: P. falciparum M17LAP inhibitors, primary screen, biochemical, fluorogenic H-Leu-NHMec substrate, 1536-well (AID 1619); type: functional
T5 sequence (Q8IL11 whole entry): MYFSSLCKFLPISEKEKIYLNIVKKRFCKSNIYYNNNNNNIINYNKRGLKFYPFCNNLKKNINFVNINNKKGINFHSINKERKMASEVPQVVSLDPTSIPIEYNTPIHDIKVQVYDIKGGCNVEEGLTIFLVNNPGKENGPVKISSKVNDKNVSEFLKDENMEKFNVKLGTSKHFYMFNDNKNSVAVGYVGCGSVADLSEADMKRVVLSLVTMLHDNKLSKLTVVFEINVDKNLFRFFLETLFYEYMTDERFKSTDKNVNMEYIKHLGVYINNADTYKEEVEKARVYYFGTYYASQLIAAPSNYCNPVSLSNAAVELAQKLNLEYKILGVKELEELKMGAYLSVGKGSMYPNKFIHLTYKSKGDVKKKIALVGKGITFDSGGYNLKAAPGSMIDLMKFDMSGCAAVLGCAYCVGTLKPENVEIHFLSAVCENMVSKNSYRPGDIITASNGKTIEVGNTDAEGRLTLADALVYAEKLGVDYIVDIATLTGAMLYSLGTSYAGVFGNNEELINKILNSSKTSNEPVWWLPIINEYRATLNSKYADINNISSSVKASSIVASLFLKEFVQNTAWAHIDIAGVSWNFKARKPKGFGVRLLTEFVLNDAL

[22] = biological target: T6, Corticotropin-releasing factor receptor 2/Corticotropin-releasing factor-binding protein (Homo sapiens, UniProt P24387+Q13324); experiment: Dose Response confirmation of uHTS hits for small molecule antagonists of the CRF-binding protein and CRF-R2 receptor complex.; type: functional; conditions: read-out: IC50_Mean
T6 sequence (Q13324 whole entry): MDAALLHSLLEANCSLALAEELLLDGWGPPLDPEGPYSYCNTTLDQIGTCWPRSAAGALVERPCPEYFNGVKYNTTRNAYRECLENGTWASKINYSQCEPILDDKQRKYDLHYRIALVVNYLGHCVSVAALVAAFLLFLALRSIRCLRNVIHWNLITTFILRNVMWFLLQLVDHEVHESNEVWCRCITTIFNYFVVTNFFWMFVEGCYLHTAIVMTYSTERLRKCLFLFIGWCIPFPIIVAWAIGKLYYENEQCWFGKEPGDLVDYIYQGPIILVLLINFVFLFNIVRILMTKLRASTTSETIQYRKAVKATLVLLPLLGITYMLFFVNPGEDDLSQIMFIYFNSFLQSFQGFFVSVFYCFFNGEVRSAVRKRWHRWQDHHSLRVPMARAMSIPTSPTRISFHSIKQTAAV
T6 sequence (P24387 whole entry): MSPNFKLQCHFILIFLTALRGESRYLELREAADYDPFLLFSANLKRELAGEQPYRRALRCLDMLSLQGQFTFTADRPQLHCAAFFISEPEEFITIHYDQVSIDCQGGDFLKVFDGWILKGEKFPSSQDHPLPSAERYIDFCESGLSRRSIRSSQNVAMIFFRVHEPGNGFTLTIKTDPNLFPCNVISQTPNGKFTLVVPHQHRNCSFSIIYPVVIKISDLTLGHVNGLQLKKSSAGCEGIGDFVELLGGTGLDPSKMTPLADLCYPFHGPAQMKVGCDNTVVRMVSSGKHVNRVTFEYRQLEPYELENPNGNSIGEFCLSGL

[23] = blockers of CRF-binding protein–CRF-R2 complex – cell-based, uHTS hits, 384-well, dose response (AID 651639); type: functional, Homo sapiens; conditions: read-out: IC50_Mean
[24] = biological target: T6, Corticotropin-releasing factor receptor 2/Corticotropin-releasing factor-binding protein; experiment: activators of CRF receptor 2 with binding protein – uHTS hits, confirmation (AID 602473); type: functional; conditions: read-out: EC50_Mean
[25] = system: HEK293; experiment: cells; type: functional, cell-based; conditions: Homo sapiens
[26] = system: HEK293; experiment: NOD2 signaling inhibitors in MDP-stimulated cells, cell-based, uHTS, luminescence (AID 2001); type: functional; conditions: Homo sapiens
[27] = system: HEK293; experiment: inhibition of NOD1-driven NF-kB reporter – cell-based, luminescence, uHTS, primary screen (AID 1578); type: functional; conditions: Homo sapiens
[28] = system: HEK293; experiment: cells; type: functional, cell-based; conditions: Homo sapiens; remark: listed apart in the source

COc1ccccc1NN=C1C(=O)NC(=S)NC1=O
IC50 [1]: 23.3 µM (inactive) | IC50 [2]: 18 µM (active)

Cc1ccc(S(=O)(=O)N2[C@@H](c3ccc(Br)cc3)C(C(=O)O)=CC[C@H]2c2ccc(Cl)c(Cl)c2)cc1
IC50 [3]: 42.9 µM (active) | IC50 [4]: 6.25 µM (active) | CC50 [5]: > 40 µM (active) | IC50 [6]: > 66.6 µM (inactive) | IC50 [7]: 5.2 µM (active)

CCOc1cc(/C=C2\C(=O)N(CCc3ccc(OC)c(OC)c3)C(C)=C2C(=O)OC)ccc1O
IC50 [8]: 118 µM (active) | CC50 [9]: 100 µM (active)

CN1CCc2c(sc3c2C(=O)NC(c2cn(Cc4ccccc4)c4ccccc24)N3)C1 (stereo unspecified)
IC50 [10]: 16 µM (active) | EC50 [11]: 8.71 µM (active) | EC50 [12]: 5.25 µM (active) | IC50 [13]: 23.4 µM (active) | CC50 [14]: 17.1 µM (active) | IC50 [15]: > 100 µM (inactive) | IC50 [16]: > 20 µM (inactive) | EC50 [17]: 8.12 µM (active)

CCCc1nnc(SCC(=O)Nc2ccc(OC)cc2)o1
IC50 [18]: 15.5 µM (inactive) | IC50 [19]: 35.9 µM (inactive) | IC50 [20]: 6.68 µM (active)

COc1cc(/C=C2\SC(=S)N(CC(=O)O)C2=O)ccc1OC(=O)c1ccco1
IC50 [1]: 4.52 µM (active) | IC50 [2]: 7.29 µM (active)

COc1cccc(C(=O)COc2cccc(NC(=O)c3cccc([N+](=O)[O-])c3)c2)c1
IC50 [18]: 0.443 µM (active) | IC50 [19]: 10.9 µM (inactive) | IC50 [20]: 0.443 µM (active)

O=C(NCC1CCCO1)c1sc(=S)n2c1[nH]c(=O)c1ccc(C(=O)N3CCCCC3)cc12 (stereo unspecified)
IC50 [1]: 51.1 µM (inactive) | IC50 [21]: 65.4 µM (active) | IC50 [2]: 21.1 µM (inactive)

Cc1ccccc1Cn1nc(C)c(NC(=O)c2cc(-c3cccs3)on2)c1C
IC50 [22]: 39.1 µM (active) | IC50 [23]: > 20 µM (inactive) | EC50 [24]: > 53 µM (inactive)

COC(=O)c1ccc(NC(=O)CSc2nn3c(=O)c(C)nnc3s2)cc1
IC50 [18]: 35.9 µM (inactive) | IC50 [19]: 35.9 µM (inactive) | IC50 [20]: 35.9 µM (inactive)

Cc1ccc(S(=O)(=O)N2CCOCC2)cc1C(=O)OCC(=O)Nc1ccc2[nH]c(O)nc2c1
IC50 [4]: 11.4 µM (active) | IC50 [6]: > 66.6 µM (inactive)

C/C(=N\NC(=O)c1cc(Cl)ccc1O)c1ccc(Br)s1
IC50 [25]: 5.47 µM (active) | IC50 [22]: < 0.368 µM (active) | IC50 [23]: > 20 µM (inactive) | IC50 [26]: 6.21 µM (inactive) | EC50 [27]: 1.93 µM (active) | EC50 [24]: > 53 µM (inactive) | IC50 [28]: > 20 µM (inactive)

COc1cccc(C2(c3cccc(OC)c3)CC2C(=O)Nc2ccccc2Cl)c1 (stereo unspecified)
IC50 [22]: 3.83 µM (active) | IC50 [23]: > 20 µM (inactive) | EC50 [24]: > 53 µM (inactive)
